According to ChEMBL document CHEMBL5260858, “Targeting mycobacterial membranes and membrane proteins: Progress and limitations” (Bioorg Med Chem, 2023):
≈ marks a conversion by molar mass, not a printed value.

Tested on: Mycobacterium tuberculosis
Experiment: Antitubercular activity against Mycobacterium africanum ATCC 25420 assessed as bacterial growth inhibition by agar dilution method
Assay type: functional
Conditions: variant africanum ATCC 25420

Work on O=C1CCc2c(cccc2OC[C@]2(O)CCN(c3c(F)cc(Cl)cc3F)C[C@H]2O)N1 yielded an MIC of 2 ng/mL (≈ 4.56 nM).
